# Laboratory results as given in patent US7335659B2, “Substituted 10-aryl-11H-benzo[b]fluorenes and 7-aryl-5, 6-dihydro-benzo[a]anthracenes for selective effects on estrogen receptors” (N.V. Organon, priority 2002, dated 2008).
# Biological target: T1, human estrogen receptor β receptor (hERβ) (Homo sapiens, UniProt Q92731)
# T1 construct: expressed in transfected cells; host or cells: Chinese hamster ovary (CHO) cells, stably co-transfected with hERβ, rat oxytocin promoter and luciferase reporter gene
# Test: Antiestrogenic activity in in vitro bioassay with recombinant CHO cells co-transfected with hERβ, rat oxytocin promoter and luciferase reporter gene
# Format: cell-based
# Conditions: potency ratio relative to standard ICI 164.384; inhibition of estradiol-induced luciferase transactivation via hERβ in CHO cells
# Description: The estrogenic and antiestrogenic activity of compounds is determined in an in vitro bioassay with recombinant Chinese hamster ovary (CHO) cells stably co-transfected with the human estrogen receptor α (hERα) or β receptor (hERβ), the rat oxytocin promoter (RO) and the luciferase reporter gene (LUC). The estrogenic activity (potency ratio) of a test compound to stimulate the transactivation of the enzyme luciferase mediated via the estrogen receptors hERα or hERβ is compared with the standard estrogen estradiol. The antiestrogenic activity (potency ratio) of a test compound to inhibit the transactivation of the enzyme luciferase mediated via the estrogen receptors hERα or hERβ by the estrogen estradiol is compared with the standard ICI 164.384 (=(7α, 17β)-N-butyl-3,17-dihydroxy-N-methylestra-1,3,5(10)-triene-7-undecanamide).
# T1 sequence (Q92731 whole entry): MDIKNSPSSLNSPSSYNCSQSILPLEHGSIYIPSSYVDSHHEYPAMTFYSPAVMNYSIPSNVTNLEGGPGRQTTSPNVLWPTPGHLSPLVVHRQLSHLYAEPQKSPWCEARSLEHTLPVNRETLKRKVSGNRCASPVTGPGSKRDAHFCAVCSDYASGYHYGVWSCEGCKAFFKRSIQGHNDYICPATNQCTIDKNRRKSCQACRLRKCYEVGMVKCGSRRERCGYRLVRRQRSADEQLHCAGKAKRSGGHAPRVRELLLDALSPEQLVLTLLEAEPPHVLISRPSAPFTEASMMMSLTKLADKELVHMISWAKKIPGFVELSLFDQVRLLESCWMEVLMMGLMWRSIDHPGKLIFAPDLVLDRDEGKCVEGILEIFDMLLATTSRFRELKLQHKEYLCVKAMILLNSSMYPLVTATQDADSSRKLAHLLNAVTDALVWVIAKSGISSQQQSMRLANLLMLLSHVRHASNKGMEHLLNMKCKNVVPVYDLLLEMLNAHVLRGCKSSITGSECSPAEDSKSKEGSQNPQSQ
row,Structure (SMILES),ERβ antagonism
1,Oc1ccc2c(c1)Cc1c-2cc2ccc(O)cc2c1-c1ccc(Cl)cc1 [Compound 5a],+ (>5% (relative to ICI): +)
2,Oc1ccc2c(c1)Cc1c-2cc2ccc(O)cc2c1-c1ccc2ccccc2c1 [Compound 5b],+ (>5% (relative to ICI): +)
3,COc1cccc(-c2c3c(cc4ccc(O)cc24)-c2ccc(O)cc2C3)c1 [Compound 5c],+ (>5% (relative to ICI): +)
4,Oc1ccc2c(c1)Cc1c-2cc2ccc(O)cc2c1-c1cccc(C(F)(F)F)c1 [Compound 5d],+ (>5% (relative to ICI): +)
5,Cc1ccc(-c2c3c(cc4ccc(O)cc24)-c2ccc(O)cc2C3)cc1 [Compound 5e],++ (>40%: ++)
6,Oc1ccc2c(c1)Cc1c-2cc2ccc(O)cc2c1-c1ccc(F)c(Cl)c1 [Compound 5f],+ (>5% (relative to ICI): +)
7,Oc1ccc2c(c1)Cc1c-2cc2ccc(O)cc2c1-c1ccc2c(c1)OCO2 [Compound 5g],+ (>5% (relative to ICI): +)
8,Oc1ccc2c(c1)Cc1c-2cc2ccc(O)cc2c1-c1ccc(-c2ccccc2)cc1 [Compound 5h],+ (>5% (relative to ICI): +)
9,Oc1ccc2c(c1)Cc1c-2cc2ccc(O)cc2c1-c1cccc(F)c1 [Compound 5j],+ (>5% (relative to ICI): +)
10,COc1ccc(-c2c3c(cc4ccc(O)cc24)-c2ccc(O)cc2C3)cc1 [Compound 5k],+ (>5% (relative to ICI): +)
11,Oc1ccc2c(c1)Cc1c-2cc2ccc(O)cc2c1-c1ccc(F)cc1 [Compound 5l],++ (>40%: ++)
12,Oc1ccc2c(c1)Cc1c-2cc2ccc(O)cc2c1-c1ccc(Cl)c(Cl)c1 [Compound 5m],++ (>40%: ++)
13,Oc1ccc2c(c1)Cc1c-2cc2ccc(O)cc2c1-c1cccc(Cl)c1 [Compound 5n],+ (>5% (relative to ICI): +)
14,Oc1ccc2c(c1)Cc1c-2cc2ccc(O)cc2c1-c1ccc(C(F)(F)F)cc1 [Compound 5o],+ (>5% (relative to ICI): +)
15,Cc1cccc(-c2c3c(cc4ccc(O)cc24)-c2ccc(O)cc2C3)c1 [Compound 5p],+ (>5% (relative to ICI): +)
16,CC(C)c1cccc(-c2c3c(cc4ccc(O)cc24)-c2ccc(O)cc2C3)c1 [Compound 5q],+ (>5% (relative to ICI): +)
17,Oc1ccc2c(c1)Cc1c-2cc2ccc(O)cc2c1-c1ccc(OC(F)(F)F)cc1 [Compound 5r],++ (>40%: ++)
18,Oc1ccc2c(c1)Cc1c-2cc2ccc(O)cc2c1-c1ccc(-c2ccccc2)c(F)c1 [Compound 5s],+ (>5% (relative to ICI): +)
19,Oc1ccc2c(c1)Cc1c-2cc2ccc(O)cc2c1-c1ccccc1C(F)(F)F [Compound 5u],++ (>40%: ++)
20,Oc1ccc2c(c1)Cc1c-2cc2ccc(O)cc2c1-c1ccccc1 [Compound 5v],+ (>5% (relative to ICI): +)
21,Oc1ccc2c(c1)Cc1c-2cc2ccc(O)cc2c1-c1ccc(OCCN2CCCCC2)cc1 [Compound 9],++ (>40%: ++)
